Measured values as given in US8383130B2, “Partial peptide of lacritin” (Senju Pharmaceutical Co., Ltd., priority 2008, dated 2013).

Tests used:
Assay type in all cases: cell-based
[1] = system: human corneal epithelial cells (HCE-T); assay: Adhesion of human corneal epithelial cell to extracellular matrix (Experimental Example 1); conditions: polypeptide 100 μg/mL, 50 μL per well, collagen type IV coated plate, 37° C. 20 min, MTT assay, no addition of polypeptide = 100%
Experimental: An extracellular matrix solution (10 μg/mL, collagen type IV: Becton, Dickinson and Company) was added to a 96 well plate (Iwaki Glass Company, Limited). The solution was incubated at 37° C. for 1 hr to coat the plate with the extracellular matrix. After the redundant extracellular matrix solution was removed, 0.1% BSA solution (Sigma-Aldrich Co.) was added to block the region not coated with the extracellular matrix. Successively, the BSA solution was removed and the plate was washed twice with PBS, and polypeptides 1-5 (concentration 100 μg/mL) synthesized in Example 1 and Comparative Example 1 were added by 50 μL per well. Furthermore, established human corneal epithelial cells (HCE-T: can be prepared by the method described in Invest Ophthalmol Vis Sci. 1995, 36, 614) were cultured overnight under serum-free conditions and added to the plate at 2×10^4 cells/100 μL DMEM/F12 medium/well. The plate was incubated at 37° C. for 20 min to allow adhesion of the cells to the plate. The number of the adhered cells was counted by MTT assay (DOJINDO LABORATORIES).

[2] = system: human corneal epithelial cells (HCE-T); assay: Adhesion of human corneal epithelial cell to extracellular matrix (Experimental Example 2); conditions: polypeptide 10 μM in PBS, 50 μL per well, collagen type IV coated plate, 37° C. 25 min, MTT assay, no addition of polypeptide = 100%
Experimental: An extracellular matrix solution (10 μg/mL, collagen type IV: Becton, Dickinson and Company) was added to a 96 well plate (Iwaki Glass Company, Limited). The solution was incubated at 37° C. for 1 hr to coat the plate with the extracellular matrix. After the redundant extracellular matrix solution was removed, 0.1% BSA solution (Sigma-Aldrich Co.) was added to block the region not coated with the extracellular matrix. Successively, the BSA solution was removed and the plate was washed three times with PBS, and polypeptides 4, 6 and 7 synthesized in Example 2 and Comparative Example 1 were suspended in PBS to a final concentration of 10 μM, and the suspension was added by 50 μL per well. Furthermore, established human corneal epithelial cells (HCE-T: can be prepared by the method described in Invest Ophthalmol Vis Sci. 1995, 36, 614) were cultured overnight under serum-free conditions and added to the plate at 2×10^4 cells/100 μL DMEM/F12 medium/well. The plate was incubated at 37° C. for 25 min to allow adhesion of the cells to the well. The number of the adhered cells was counted by MTT assay (DOJINDO LABORATORIES).

[3] = system: monkey lacrimal gland acinar cells; assay: Secretion of tear protein (lactoferrin) from monkey lacrimal gland acinar cells; conditions: 1 μM polypeptide; for lactoferrin secretion amount (ng/10^5 cells): 37° C. 10 min, westernblot, human lactoferrin as standard
Experimental: Monkey lacrimal gland was chopped in a DMEM/F12 medium (Invitrogen Corporation) and treated with HBSS (Invitrogen Corporation) containing 0.76 mg/mL EDTA (Sigma-Aldrich Co.) and DMEM/F12 medium containing 200 U/mL collagenase A (Roche), 698 U/mL Hyarulonidase (Worthington Biochemical Corporation) and 10 U/mL DNase (Roche Diagnostics K.K.), and the cells were isolated. 1×10^6 cells were sown on a 6 well plate (ASAHI GLASS CO., LTD.) coated with 0.01 mg/cm^2 Collagen I (Becton, Dickinson and Company), and cultured in a CO2 incubator at 37° C. overnight. The next day, the medium was changed to a supplement-free DMEM/F12 medium and the cells were pre-incubated at 37° C. for 30 min, and then incubated in a DMEM/F12 medium containing 1 μM polypeptide 1 or 4 at 37° C. for 10 min. Lactoferrin as a tear protein secreted in the medium was detected by westernblot, and quantified using human lactoferrin (Sigma-Aldrich Co.) as the standard. The collected medium was purified by 2D clean up kit (Bio-Rad Laboratories, Inc.), dissolved in NuPAGE LDS sample buffer (Invitrogen Corporation), and thermally denatured at 70° C. for 10 min. An equivalent amount of a sample was electrophoresed in 4-12% NuPAGE Bis Tris gel in MES buffer (Invitrogen Corporation) at 200 V for 35 min, and blotted on a PVDF membrane (Nihon Millipore K.K.) at 100 V for 60 min using Trans Blot Mini Cell (Bio-Rad Laboratories, Inc.). The membrane was blocked with TTBS (Bio-Rad Laboratories, Inc.) containing 5% skim-milk (Bio-Rad Laboratories, Inc.) at room temperature for 30 min, and reacted overnight at 4° C. with lactoferrin antibody (manufactured in rabbit, Sigma-Aldrich Co.) diluted 1000-fold. After washing the membrane with TTBS, the membrane was reacted at room temperature for 60 min with secondary antibody of anti-rabbit HRP, which was diluted 5000-fold. Then detection using ECL plus (GE healthcare) was performed. In addition, the amount of the secreted lactoferrin was quantified by forming an analytical curve of human lactoferrin on the same membrane, and comparing the density of the bands.

Row | Sequence | cell adhesion rate (%) [1] [%] | cell adhesion rate (%) [2] [%] | lactoferrin secretion amount (ng/10^5 cells) [3] [ng/10^5 cells] | promotion of secretion of lactoferrin (in words) ([3]; 10 min)
1 | EISGPAEPASPPETTTTAQETSAAAVQGTAKVT (listed as Homo sapiens) [polypeptide 4, reference compound] | 100 | 107 | 2.79 | 
2 | EISGPAEPASPPETTTTAQETSAAAVQGTAKVTSSRQELNPLKSIVEKSILLTEQALAKA (listed as Homo sapiens) [polypeptide 7] |  | 190 |  | 
3 | QGTAKVTSSRQELNPL (listed as Homo sapiens) [polypeptide 5, reference compound] | 98 |  |  | 
4 | QGTAKVTSSRQELNPLKSIVEKSILLTEQALAKA (listed as Homo sapiens) [polypeptide 6] |  | 160 |  | 
5 | QGTAKVTSSRQELNPLKSIVEKSILLTEQALAKAGKGMHGGVPGG (listed as Homo sapiens) [polypeptide 2] | 134 |  |  | 
6 | QGTAKVTSSRQELNPLKSIVEKSILLTEQALAKAGKGMHGGVPGGKQFIENGSEF (listed as Homo sapiens) [polypeptide 3] | 147 |  |  | 
7 | VQGTAKVTSSRQELNPLKSIVEKSILLTEQALAKA (listed as Homo sapiens) [polypeptide 1] | 147 |  | 11.7 | promoted the secretion of lactoferrin
